Test results reported in publication PMC8037814, “Polymorphic Characterization, Pharmacokinetics, and Anti-Inflammatory Activity of Ginsenoside Compound K Polymorphs” (Molecules, 2021).
Values joined by “and” are separate entries in the source; they are usually repeats but may differ in a detail not shown here. Equal entries are not always repeated.

Columns and labels:
[1] = Pharmacokinetics after oral administration of CK polymorphs in rats (20 mg/kg); assay type: in vivo, Sprague-Dawley rats; conditions: p.o. 20 mg/kg, individual rats 1-3
Description: All samples were analyzed with a triple quadrupole LC-MS/MS (API 4000 LC-MS/MS, AB Sciex, Framingham, MA, USA) coupled with an Agilent 1200 HPLC system (Agilent Technologies, Palo Alto, CA, USA). The MS was equipped with an electrospray system (ESI). The N2 gas temperature and ion-spray voltage were set to 550 °C and 4.5 kV, respectively. CK was measured in multiple reaction monitoring (MRM) mode using a negative electrospray ionization source at m/z 667.4 → 621.2 for CK (CID 25.6 v) and m/z 271.2 → 228.8 for internal standard (IS, (E)-5-(4-fluorostyryl)-2-isopropylbenzene-1,3-diol, Welichem Biotech Inc., Wayburne Drive Burnaby, BC, Canada) (CID 28.3 v) with a dwell time of 0.1 s.
Rats were divided randomly into 5 groups of six animals each (sex in half) and given 7 days to acclimatize to the facility before the experiments began. The four forms of CK were suspended in 0.5% sodium carboxymethyl cellulose (CMC-Na) solution and orally administered to rats at a dose of 20 mg/kg. A CK solution in a mixed solvent of dimethyl sulfoxide (DMSO)/castor oil/physiologic saline (3:5:92, v/v) was intravenously administered to the remaining group via the tail vein at a dose of 10 mg/kg. Blood samples were collected by retro-orbital puncture at the following times: 0.167, 0.333, 0.667, 1, 2, 3, 4, 6, 9, 12, and 24 h for the oral administration, and at 0.0083, 0.05, 0.133, 0.25, 0.5, 1, 2, 4, 6, and 9 h for the intravenous administration. Plasma samples were obtained by centrifuging a heparinized blood tube at 4000 rpm for 5 min and then stored at −70 °C until analysis.
The procedure for drug extraction from plasma samples was as follows: 0.2 mL acetonitrile, 0.2 mL plasma sample, and 10 μL IS (1 µg/mL) were added into a 1.5 mL Eppendorf-type tube. This mixture was vortexed for 1 min and then treated with 0.8 mL of methyl tert-butyl ether (MTBE) to precipitate the plasma proteins. After a mechanical vortex for 1 min and subsequent centrifugation (4000 rpm, 5 min), 0.8 mL of the supernatant was transferred and blow-dried with N2 at 40 °C in a water bath. Finally, the residue was dissolved in 120 μL of mobile phase, and then 10 μL was subjected to HPLC for analysis. […] Intra- and inter-day precision and accuracy never exceeded 15% by analyzing six replicate samples.
The CK pharmacokinetic parameters in rats, including the area under the curve (AUC(0–t) and AUC(0–∞)), mean residence time (MRT(0–t) and MRT(0–∞)), maximum concentration (Cmax), time to maximum concentration (Tmax), half-life (t1/2), apparent distribution volume (V), and total plasma clearance (CL), were derived from plasma concentration-time curves by using non-compartmental analysis (NCA) with DAS 2.0 software (Drug And Statistics, Mathematical Pharmacology Professional Committee of China, Shanghai, China). The absolute bioavailability (Fabs) was calculated from the dose-adjusted ratio of AUCp.o. to AUCi.v.. One-way analysis of variance (ANOVA) by SPSS 11.5 (SPSS Inc., Chicago, IL, USA) was conducted to compare the primary PK parameters.

[2] = tested on: carrageenan-induced acute paw inflammation; experiment: Paw swelling test induced by carrageenan in rats; assay type: in vivo, Sprague-Dawley rats; parameters: paw volume: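 right hind paw volume measured with a plethysmometer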; conditions: listed as From III; for paw volume / paw edema: mean±SD of 6 rats; for edema inhibition: versus model group
Description: Rats were divided into 11 groups of six animals each (sex in half): the normal group, the model group, indomethacin group (1 mg/kg), and form I, II, III, IV groups (each form set 10 mg/kg and 20 mg/kg groups, respectively). Indomethacin and CK were ground and suspended in 0.5% CMC-Na solution. […] The same volume of saline was injected into the normal group. […] Paw edema and inhibitory rate were calculated as the following formula, and the differences among groups were compared with the t-test. Paw edema (%) = (Vn − V0)/V0 × 100%. Vn: paw volume at different time intervals after carrageenan injection. V0: paw volume before carrageenan injection. Inhibitory rate (%) = (Em − Ee)/Em × 100%. Em: paw edema of the model group. Ee: paw edema of the experimental group.

[3] = DSC thermal analysis of CK polymorphs; assay type: physicochemical; conditions: 20 K/min from 20 to 400 °C, dry nitrogen flow
Description: DSC measurements were performed on a DSC204 Phoenix calorimeter (NETZSCH, Selb, Germany) with a heating rate of 20 K/min from 20 to 400 °C. The dry nitrogen flow was about 50 mL/min. Data were analyzed using NETZSCH analysis software.

[4] = Pharmacokinetics after oral administration of CK polymorphs in rats (20 mg/kg); assay type: in vivo, Sprague-Dawley rats; conditions: for Fabs (absolute bioavailability): p.o. 20 mg/kg vs i.v. 10 mg/kg, dose-adjusted AUC ratio; for t1/2z / AUC(0–t) / AUC(0–∞) / CLz/F / Cmax / Vz/F: p.o. 20 mg/kg, 20 mg/kg
[5] = 10 mg/kg p.o. qd 3 days, 3h after carrageenan
[6] = 10 mg/kg p.o. qd 3 days, 4h after carrageenan
[7] = 10 mg/kg p.o. qd 3 days, 5h after carrageenan
[8] = 10 mg/kg p.o. qd 3 days, 6h after carrageenan
[9] = 20 mg/kg p.o. qd 3 days, 3h after carrageenan
[10] = 20 mg/kg p.o. qd 3 days, 4h after carrageenan
[11] = 20 mg/kg p.o. qd 3 days, 5h after carrageenan
[12] = 20 mg/kg p.o. qd 3 days, 6h after carrageenan

Structure (SMILES): CC(C)=CCCC(C)(OC1OC(CO)C(O)C(O)C1O)C1CCC2(C)C1C(O)CC1C3(C)CCC(O)C(C)(C)C3CCC12C [Form III, 20-O-β-D-glucopyranosyl-20(S)-protopanaxadiol]
- AUC(0-t) ([1]; female rats): 1577.20 ng·h/mL and 2580.19 ng·h/mL and 1451.26 ng·h/mL
- AUC(0-∞) ([1]; female rats): 1582.68 ng·h/mL and 2592.62 ng·h/mL and 1513.29 ng·h/mL
- CLz/F ([1]; female rats): 210.7 mL/min/kg and 128 mL/min/kg and 220.3 mL/min/kg
- Cmax ([1]; female rats): 263.79 ng/mL and 412.66 ng/mL and 388.92 ng/mL
- Vz/F ([1]; female rats): 51.35 L/kg and 34.03 L/kg and 48.90 L/kg
- AUC(0-t) ([1]; male rats): 656.21 ng·h/mL and 1550.66 ng·h/mL and 1308.63 ng·h/mL
- AUC(0-∞) ([1]; male rats): 662.23 ng·h/mL and 1560.11 ng·h/mL and 1328.10 ng·h/mL
- CLz/F ([1]; male rats): 503.3 mL/min/kg and 213.7 mL/min/kg and 251 mL/min/kg
- Cmax ([1]; male rats): 90.26 ng/mL and 144.54 ng/mL and 218.65 ng/mL
- t1/2z ([1]; male rats): 2.68 h and 3.83 h and 3.40 h
- paw volume ([2]; 10 mg/kg p.o. qd 3 days, 0h (before carrageenan)): 1.60±0.11
- paw edema [2, 5]: 56.76±9.61%
- paw volume [2, 5]: 2.50±0.06
- edema inhibition [2, 5]: 11.69%
- paw edema [2, 6]: 58.19±18.49%
- paw volume [2, 6]: 2.52±0.17
- edema inhibition [2, 6]: 6.69%
- paw edema [2, 7]: 42.15±12.34%
- paw volume [2, 7]: 2.27±0.14
- edema inhibition [2, 7]: 18.56%
- paw edema [2, 8]: 30.81±14.08%
- paw volume [2, 8]: 2.08±0.15
- edema inhibition [2, 8]: 21.63%
- paw volume ([2]; 20 mg/kg p.o. qd 3 days, 0h (before carrageenan)): 1.63±0.12
- paw edema [2, 9]: 55.29±13.62%
- paw volume [2, 9]: 2.53±0.25
- edema inhibition [2, 9]: 13.98%
- paw edema [2, 10]: 48.28±7.79%
- paw volume [2, 10]: 2.42±0.13
- edema inhibition [2, 10]: 22.59%
- paw edema [2, 11]: 34.20±12.28%
- paw volume [2, 11]: 2.18±0.15
- edema inhibition [2, 11]: 33.94%
- paw edema [2, 12]: 27.94±7.14%
- paw volume [2, 12]: 2.08±0.08
- edema inhibition [2, 12]: 28.94%
- DSC onset of the decomposition endotherm (thermodynamical stability) [3]: 255.9 °C
- Fabs (absolute bioavailability) ([4]; female rats): 5.85%
- t1/2z ([4]; female rats, individual rats 1-3): 2.82 h and 3.06 h and 2.56 h
- AUC(0–t) ([4]; female rats, mean ± SD (n = 3)): 1869.55 ± 618.65 ng·h/mL and 1869.6 ± 618.65 ng·h/mL
- AUC(0–∞) ([4]; female rats, mean ± SD (n = 3)): 1896.19 ± 604.12 ng·h/mL and 1896.2 ± 604.12 ng·h/mL
- CLz/F ([4]; female rats, mean ± SD (n = 3)): 186.5 ± 50.3 mL/min/kg and 187 ± 50.3 mL/min/kg
- Cmax ([4]; female rats, mean ± SD (n = 3)): 355.12 ± 79.98 ng/mL and 355.1 ± 79.98 ng/mL
- Vz/F ([4]; female rats, mean ± SD (n = 3)): 44.76 ± 9.37 L/kg and 44.8 ± 9.37 L/kg
- t1/2z ([4]; female rats, mean ± SD (n = 3)): 2.81 ± 0.25 h and 2.8 ± 0.25 h
- Fabs (absolute bioavailability) ([4]; male rats): 3.90%
- Vz/F ([4]; male rats, individual rats 1-3): 148.10 L/kg and 49.55 L/kg and 83.24 L/kg
- AUC(0–t) ([4]; male rats, mean ± SD (n = 3)): 1171.83 ± 462.65 ng·h/mL and 1171.8 ± 462.65 ng·h/mL
- AUC(0–∞) ([4]; male rats, mean ± SD (n = 3)): 1183.48 ± 466.08 ng·h/mL and 1183.5 ± 466.08 ng·h/mL
- CLz/F ([4]; male rats, mean ± SD (n = 3)): 322.7 ± 158 mL/min/kg and 323 ± 158 mL/min/kg
- Cmax ([4]; male rats, mean ± SD (n = 3)): 151.15 ± 64.45 ng/mL and 151.2 ± 64.45 ng/mL
- Vz/F ([4]; male rats, mean ± SD (n = 3)): 93.63 ± 50.09 L/kg and 93.6 ± 50.1 L/kg
- t1/2z ([4]; male rats, mean ± SD (n = 3)): 3.3 ± 0.58 h
